pIC50, pKi: −log10 of the molar value. Calls of active or inactive are those of the source. The calls are words filed in the database; no cut-off is given here.

Test [1] concerns the target T1, Sodium-dependent dopamine transporter (Homo sapiens, UniProt Q01959). Kind of test: Displacement of [125I]RTI55 from human recombinant DAT expressed in HEK293 cells. It counts as cell-based. In general terms: In a radioligand displacement assay an active substance lowers the binding of a labelled ligand.
The target of test [2] is T2, Sodium-dependent serotonin transporter (Homo sapiens, UniProt P31645). The test is described as follows: biochemical. The format is cell-based, HEK293.
T2 sequence (P31645 whole entry): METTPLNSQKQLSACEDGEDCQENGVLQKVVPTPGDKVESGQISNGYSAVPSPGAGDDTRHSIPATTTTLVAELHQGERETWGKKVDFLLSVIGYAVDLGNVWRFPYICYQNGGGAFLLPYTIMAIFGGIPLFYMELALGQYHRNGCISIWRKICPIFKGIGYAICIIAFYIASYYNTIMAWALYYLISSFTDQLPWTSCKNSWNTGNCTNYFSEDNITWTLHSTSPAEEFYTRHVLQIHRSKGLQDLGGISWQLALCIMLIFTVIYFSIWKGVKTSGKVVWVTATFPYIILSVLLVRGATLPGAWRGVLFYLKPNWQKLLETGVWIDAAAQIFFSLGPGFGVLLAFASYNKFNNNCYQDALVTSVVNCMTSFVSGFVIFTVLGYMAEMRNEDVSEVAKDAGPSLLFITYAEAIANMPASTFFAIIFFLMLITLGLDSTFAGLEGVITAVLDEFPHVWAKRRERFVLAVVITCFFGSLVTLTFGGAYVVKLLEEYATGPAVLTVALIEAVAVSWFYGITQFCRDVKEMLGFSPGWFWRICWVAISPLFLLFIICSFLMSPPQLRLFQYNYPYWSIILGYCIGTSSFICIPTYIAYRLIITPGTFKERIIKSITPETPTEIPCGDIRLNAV
Test [3] concerns the target T3, Sodium-dependent noradrenaline transporter (Homo sapiens, UniProt P23975). Kind of test: Displacement of [125I]RTI55 from human recombinant NET expressed in HEK293 cells. It counts as cell-based.
Test [4] has as its target T1, Sodium-dependent dopamine transporter. Kind of test: Inhibition of [3H]DA from human recombinant DAT expressed in HEK293 cells. The format is cell-based.
Test [5] concerns the target T2, Sodium-dependent serotonin transporter. The test is described as follows: Inhibition of [3H]5HT from human recombinant SERT expressed in HEK293 cells. It counts as cell-based.
For test [6], the target named is T3, Sodium-dependent noradrenaline transporter. The test is described as follows: Inhibition of [3H]NE from human recombinant NET expressed in HEK293 cells. It counts as cell-based.
Test [7] concerns the target T4, 3',5'-cyclic-AMP phosphodiesterase 4D (Homo sapiens, UniProt Q08499). The test is described as follows: Inhibition of PDE4D2 by rapid fluorescence based assay.
In test [8] the target is T4, 3',5'-cyclic-AMP phosphodiesterase 4D. Kind of test: Inhibition of PDE4D2 at 100 uM by rapid fluorescence based assay.

T1 sequence (Q01959 whole entry): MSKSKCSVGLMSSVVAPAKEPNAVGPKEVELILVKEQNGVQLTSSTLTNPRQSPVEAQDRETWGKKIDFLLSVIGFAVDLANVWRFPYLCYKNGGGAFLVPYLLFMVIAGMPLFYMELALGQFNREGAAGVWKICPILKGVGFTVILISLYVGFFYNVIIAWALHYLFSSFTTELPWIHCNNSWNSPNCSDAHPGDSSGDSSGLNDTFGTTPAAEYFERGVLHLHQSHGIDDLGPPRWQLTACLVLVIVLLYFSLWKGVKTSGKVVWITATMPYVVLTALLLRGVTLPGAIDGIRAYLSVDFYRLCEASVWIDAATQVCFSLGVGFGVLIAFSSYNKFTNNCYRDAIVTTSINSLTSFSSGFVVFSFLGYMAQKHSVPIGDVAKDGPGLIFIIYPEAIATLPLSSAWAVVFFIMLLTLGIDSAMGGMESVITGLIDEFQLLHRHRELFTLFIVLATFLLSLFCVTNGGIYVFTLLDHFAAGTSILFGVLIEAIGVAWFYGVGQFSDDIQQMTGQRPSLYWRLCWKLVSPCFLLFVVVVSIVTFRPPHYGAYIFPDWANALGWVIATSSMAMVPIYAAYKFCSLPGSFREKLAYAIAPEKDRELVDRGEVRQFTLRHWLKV
T3 sequence (P23975 whole entry): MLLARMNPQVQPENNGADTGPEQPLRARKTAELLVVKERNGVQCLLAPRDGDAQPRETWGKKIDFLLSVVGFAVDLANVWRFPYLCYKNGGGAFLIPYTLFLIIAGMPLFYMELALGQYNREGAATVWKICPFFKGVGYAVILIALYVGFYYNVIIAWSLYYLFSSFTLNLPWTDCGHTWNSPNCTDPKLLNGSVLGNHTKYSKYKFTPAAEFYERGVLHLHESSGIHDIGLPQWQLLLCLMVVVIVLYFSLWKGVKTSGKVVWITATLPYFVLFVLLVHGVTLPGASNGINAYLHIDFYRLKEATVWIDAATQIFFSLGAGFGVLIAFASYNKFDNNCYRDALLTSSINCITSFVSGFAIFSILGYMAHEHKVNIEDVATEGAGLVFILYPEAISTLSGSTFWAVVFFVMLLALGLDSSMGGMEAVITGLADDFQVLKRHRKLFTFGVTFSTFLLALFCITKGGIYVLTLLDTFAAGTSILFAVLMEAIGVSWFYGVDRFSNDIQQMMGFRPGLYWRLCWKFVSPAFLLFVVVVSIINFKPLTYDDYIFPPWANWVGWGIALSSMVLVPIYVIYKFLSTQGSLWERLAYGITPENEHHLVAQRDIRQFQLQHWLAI
T4 sequence (Q08499 whole entry): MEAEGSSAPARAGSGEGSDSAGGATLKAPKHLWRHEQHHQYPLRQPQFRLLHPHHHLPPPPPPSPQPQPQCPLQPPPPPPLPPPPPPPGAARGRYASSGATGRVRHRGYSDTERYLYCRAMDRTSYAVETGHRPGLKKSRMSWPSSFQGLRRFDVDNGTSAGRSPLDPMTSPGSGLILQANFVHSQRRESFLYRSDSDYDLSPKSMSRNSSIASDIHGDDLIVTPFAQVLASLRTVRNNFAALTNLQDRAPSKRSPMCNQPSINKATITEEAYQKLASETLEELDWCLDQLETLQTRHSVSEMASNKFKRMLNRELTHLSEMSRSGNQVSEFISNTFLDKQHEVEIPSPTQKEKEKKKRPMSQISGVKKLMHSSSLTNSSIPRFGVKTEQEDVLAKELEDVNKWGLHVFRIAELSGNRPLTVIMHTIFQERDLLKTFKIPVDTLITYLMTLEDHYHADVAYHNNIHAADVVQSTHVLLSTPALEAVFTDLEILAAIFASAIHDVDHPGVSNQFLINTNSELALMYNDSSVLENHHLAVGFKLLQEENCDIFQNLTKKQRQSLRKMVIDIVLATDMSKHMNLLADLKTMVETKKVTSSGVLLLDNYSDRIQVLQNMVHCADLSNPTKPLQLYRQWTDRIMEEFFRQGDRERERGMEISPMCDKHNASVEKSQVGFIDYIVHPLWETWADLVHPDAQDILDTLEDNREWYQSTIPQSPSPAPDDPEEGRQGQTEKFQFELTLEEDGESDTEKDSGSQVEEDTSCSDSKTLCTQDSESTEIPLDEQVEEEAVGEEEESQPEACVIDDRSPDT

The term pKi denotes −log10 of the Ki, conventionally taken in molar units. What is called pIC50 is −log10 of the IC50, conventionally taken in molar units. On to `COc1ccc(C2=NN(CCCCCNCC[C@H](Oc3ccc(C(F)(F)F)cc3)c3ccccc3)C(=O)C3CC=CCC23)cc1OC` (stereo not given in full), for which the pKi was 5.57 in test [1], 6.52 in test [2] and 5.34 in test [3]. Further, the pIC50 was 5.22 in test [4], 7.38 in test [5], 5.18 in test [6] and 6.60 in test [7].
Regarding `NCC[C@@H](Oc1ccc(C(F)(F)F)cc1)c1ccccc1`, the pKi in test [1] is 5.44; in test [3], 5.13. Further, the values for the pIC50 in test [4] and in test [6] were 5.15 and 5.70, respectively. Besides, the result in test [8] was inactive.
For `COc1ccc(C2=NNC(=O)C3CC=CCC23)cc1OC` (stereo not given), the negative logarithm of the Ki (pKi) in test [1], in test [2] and in test [3] was below 4.00 in each case. Besides, the pIC50 is below 4.00 in test [4], below 4.00 in test [5], below 4.00 in test [6] and 6.67 in test [7].
Turning to `COc1ccc(C2=NN(CCCCCNCC[C@@H](Oc3ccc(C(F)(F)F)cc3)c3ccccc3)C(=O)C3CC=CCC23)cc1OC` (stereo not given in full), the pKi in test [1] was 5.35; in test [2] it was 7.19; in test [3] it was 5.18. For the same compound, the pIC50 in test [4] was below 5.15; in test [5], 6.76; in test [6], 5.17; in test [7], 6.97.
On to `COc1ccc(C2=NN(CCCCCBr)C(=O)C3CC=CCC23)cc1OC` (stereo not given), for which the pKi in test [1] and in test [2] was below 4.00 in each case. Further, the pIC50 in test [4] and in test [5] was below 4.00 in each case.
For the compound `NCC[C@H](Oc1ccc(C(F)(F)F)cc1)c1ccccc1` [SEPROXETINE], the pKi in test [1] was 5.34; in test [3] it was 5.21. Further, the figures for the pIC50 in test [4], in test [6] and in test [7] were 5.19, 5.55 and at most 4.00, respectively.

For the origin of these results see ChEMBL document CHEMBL1139269, “Stereoselective inhibition of serotonin re-uptake and phosphodiesterase by dual inhibitors as potential agents for depression” (Bioorg Med Chem, 2009).
